Results published in patent publication US12559454B2, “Benzenesulfonamide derivatives and uses thereof” (2692372 Ontario, Inc., priority 2019, dated 2026).

Tests used:
MV4-11 cells = experiment: CellTiter-Blue cell viability, MV-4-11; assay type: cell-based; details: Homo sapiens, 72 hrs exposure
Experimental: (§1) Anti-cancer efficacy of exemplary compounds of this application was assessed in vitro in different cancer cell lines. Cell viability was examined following treatment at various concentration of inhibitor (0.097656-50 μM) using a cell Titer-Blue cell viability assay. 1×10^4 cells (NHF, MV4-11, K562 and MOLM-13 cells)/well were plated in 96-well assay plates in culture medium. All cells were grown in DMEM, IMDM and RPMI-1640 supplemented with 10% FBS. After 24 hrs, test compounds and vehicle controls were added to appropriate wells so the final volume was 100 μl in each well. The cells were cultured for the desired test exposure period (72 hrs) at 37° C. and 5% CO2. The assay plates were removed from 37° C. incubator and 20 μl/well of CellTiter-Blue® Reagent was added. The plates were incubated using standard cell culture conditions for 1-4 hours and the plates were shaken for 10 seconds and record fluorescence at 560/590 nm.

MOLM-13 cells = experiment: CellTiter-Blue cell viability, MOLM-13; assay type: cell-based; details: Homo sapiens, 72 hrs exposure
Experimental: as §1

K562 cells = experiment: CellTiter-Blue cell viability, K562; assay type: cell-based; details: Homo sapiens, 72 hrs exposure
Experimental: as §1

tubulin = experiment: Tubulin polymerization assay; assay type: biochemical; details: for % Inhibition: Vmax normalized to tubulin only control; for % D.O.P.: degree of polymerization relative to tubulin control
Experimental: A96-well half-area clear flat-bottom microplate (Corning® #3697) was pre-heated in a plate reader (Cytation 3, BioTek) at 37° C. for 15 minutes prior to the start of each assay. Tubulin polymerization buffer (80 mM PIPES pH 6.9, 2 mM MgCl2, 0.5 mM EGTA, 15% glycerol, 1 mM GTP) was prepared from stock solutions and placed on ice. Inhibitors were prepared to M concentrations in buffer (80 mM PIPES pH 6.9, 2 mM MgCl2, 0.5 mM EGTA, 5% DMSO) from DMSO stock solutions. After the assay plate was pre-warmed, 10 μL of inhibitor or buffer control was added to selected wells. Every assay contained a tubulin only negative control for normalization of data, and a batabulin positive control. The assay plate was incubated at 37° C. for 3 minutes. During this time, a frozen aliquot of tubulin (10 mg/mL) in buffer (80 mM PIPES pH 6.9, 2 mM MgCl2, 0.5 mM EGTA) was defrosted by placing in a room temperature water bath. Once thawed, 200 μL of tubulin was mixed with 420 μL ice cold tubulin polymerization buffer (3 mg/mL tubulin in 80 mM PIPES, pH 6.9, 2 mM MgCl2, 0.5 mM EGTA, 1 mM GTP, 10.2% glycerol). To a 96-well plate on ice, aliquots of 100 μL tubulin was added to each well. From this plate, 90 μL of tubulin was immediately pipetted into all sample wells of the warmed assay plate using a multi-channel pipette. The assay plate was immediately put in the reader at 37° C. and shook for 5 s with orbital shaking at medium speed. The reader recorded the absorbance at 340 nm every 15 s for 30 min.
The resulting absorbance curves were normalized by subtracting each data point by the absorbance at time 0.
The largest change in absorbance over the assay time course was also recorded and related to the tubulin control as the % degree of polymerization (% D.O.P.).

IC50 (MV4-11 cells)	IC50 (MOLM-13 cells)	IC50 (K562 cells)	SMILES	% Inhibition (tubulin)	% D.O.P. (tubulin)
1000 to 10000 nM	1000 to 10000 nM	> 10000 nM	CN(C)S(=O)(=O)c1c(F)c(F)c(F)c(F)c1F [Compound I-1, 2,3,4,5,6-pentafluoro-N,N-dimethylbenzenesulfonamide]	A (<10%)	A (>85%)
100 to 1000 nM	1000 to 10000 nM	> 10000 nM	CN(C)S(=O)(=O)c1c(F)c(F)c(F)c(F)c1OCc1ccccc1 [Compound I-2, 2-(benzyloxy)-3,4,5,6-tetrafluoro-N,N-dimethylbenzenesulfonamide]		
1000 to 10000 nM	1000 to 10000 nM	> 10000 nM	CC(C)Oc1c(F)c(F)c(F)c(F)c1S(=O)(=O)N(C)C [Compound I-6, 2,3,4,5-tetrafluoro-6-isopropoxy-N,N-dimethylbenzenesulfonamide]		
1000 to 10000 nM	1000 to 10000 nM	> 10000 nM	CN(C)S(=O)(=O)c1c(F)c(F)c(F)c(F)c1OCc1ccccn1 [Compound I-19, 2,3,4,5-tetrafluoro-N,N-dimethyl-6-(pyridin-2-ylmethoxy)benzenesulfonamide]		
> 10000 nM	> 10000 nM	> 10000 nM	CN(C)S(=O)(=O)c1c(F)c(F)c(F)c(F)c1OC(=O)OC(C)(C)C [Compound I-21, tert-butyl (2-(N,N-dimethylsulfamoyl)-3,4,5,6-tetrafluorophenyl) carbonate]		
1000 to 10000 nM	1000 to 10000 nM	> 10000 nM	CC(=O)c1c(F)c(F)c(F)c(F)c1S(=O)(=O)N(C)C [Compound I-26, 2-acetyl-3,4,5,6-tetrafluoro-N,N-dimethylbenzenesulfonamide]		
100 to 1000 nM	1000 to 10000 nM	> 10000 nM	COC(=O)c1c(F)c(F)c(F)c(F)c1S(=O)(=O)N(C)C [Compound I-31, methyl 2-(N,N-dimethylsulfamoyl)-3,4,5,6-tetrafluorobenzoate]		
100 to 1000 nM	100 to 1000 nM	100 to 1000 nM	COc1ccc(NS(=O)(=O)c2c(F)c(F)c(F)c(F)c2OCC(F)F)cc1F [Compound I-67, 2-(2,2-difluoroethoxy)-3,4,5,6-tetrafluoro-N-(3-fluoro-4-methoxyphenyl)benzenesulfonamide]	C (>20%)	B (< 85%)
100 to 1000 nM	1000 to 10000 nM	100 to 1000 nM	COc1ccc(NS(=O)(=O)c2c(F)c(F)c(F)c(F)c2OCC(F)(F)F)cc1F [Compound I-68, 2,3,4,5-tetrafluoro-N-(3-fluoro-4-methoxyphenyl)-6-(2,2,2-trifluoroethoxy)benzenesulfonamide]	B (10-20%)	B (< 85%)
	1000 to 10000 nM	100 to 1000 nM	COc1ccc(NS(=O)(=O)c2c(F)c(F)c(F)c(F)c2Oc2ccccc2)cc1F [Compound I-76, 2,3,4,5-tetrafluoro-N-(3-fluoro-4-methoxyphenyl)-6-phenoxybenzenesulfonamide]	C (>20%)	B (< 85%)

Second part, the molecule before the results:

SMILES	IC50 (MV4-11 cells)	IC50 (MOLM-13 cells)	IC50 (K562 cells)	% Inhibition (tubulin)	% D.O.P. (tubulin)
CN(C)S(=O)(=O)c1c(F)c(F)c(F)c(F)c1OC(F)F [Compound I-8, 2-(difluoromethoxy)-3,4,5,6-tetrafluoro-N,N-dimethylbenzenesulfonamide]	1000 to 10000 nM	> 10000 nM	> 10000 nM		
CN(C)S(=O)(=O)c1c(F)c(F)c(F)c(F)c1OCc1ccc(F)cc1F [Compound I-16, 2-((2,4-difluorobenzyl)oxy)-3,4,5,6-tetrafluoro-N,N-dimethylbenzenesulfonamide]	100 to 1000 nM	1000 to 10000 nM	> 10000 nM		
CN(C)S(=O)(=O)c1c(F)c(F)c(F)c(F)c1OCc1ccc(C(N)=O)cc1 [Compound I-18, 4-((2-(N,N-dimethylsulfamoyl)-3,4,5,6-tetrafluorophenoxy)methyl)benzamide]	1000 to 10000 nM	1000 to 10000 nM	> 10000 nM		
CC(C)S(=O)(=O)Oc1c(F)c(F)c(F)c(F)c1S(=O)(=O)N(C)C [Compound I-22, 2-(N,N-dimethylsulfamoyl)-3,4,5,6-tetrafluorophenyl propane-2-sulfonate]		1000 to 10000 nM	> 10000 nM		
CN(C)S(=O)(=O)c1c(F)c(F)c(F)c(F)c1Cc1ccccc1 [Compound I-24, 2-benzyl-3,4,5,6-tetrafluoro-N,N-dimethylbenzenesulfonamide]	1000 to 10000 nM	1000 to 10000 nM	> 10000 nM		
Cc1c(F)c(F)c(F)c(F)c1S(=O)(=O)N(C)C [Compound I-25, 2,3,4,5-tetrafluoro-N,N,6-trimethylbenzenesulfonamide]		1000 to 10000 nM	> 10000 nM		
CC(C)COC(=O)c1c(F)c(F)c(F)c(F)c1S(=O)(=O)N(C)C [Compound I-32, isobutyl 2-(N,N-dimethylsulfamoyl)-3,4,5,6-tetrafluorobenzoate]	100 to 1000 nM	1000 to 10000 nM	> 10000 nM		
CN(C)C(=O)c1c(F)c(F)c(F)c(F)c1S(=O)(=O)N(C)C [Compound I-37, 2-(N,N-dimethylsulfamoyl)-3,4,5,6-tetrafluoro-N,N-dimethylbenzamide]	1000 to 10000 nM	1000 to 10000 nM	> 10000 nM		
CN(C)S(=O)(=O)c1c(F)c(F)c(F)c(F)c1C1CC1 [Compound I-39, 2-cyclopropyl-3,4,5,6-tetrafluoro-N,N-dimethylbenzenesulfonamide]	1000 to 10000 nM	1000 to 10000 nM	> 10000 nM		
CN(C)S(=O)(=O)c1c(F)c(F)c(F)c(F)c1NCc1ccccc1 [Compound I-48, 2-(benzylamino)-3,4,5,6-tetrafluoro-N,N-dimethylbenzenesulfonamide]	1000 to 10000 nM	1000 to 10000 nM	> 10000 nM		
CNc1c(F)c(F)c(F)c(F)c1S(=O)(=O)N(C)C [Compound I-49, 2,3,4,5-tetrafluoro-N,N-dimethyl-6-(methylamino)benzenesulfonamide]	1000 to 10000 nM	1000 to 10000 nM	> 10000 nM		
CN(C)S(=O)(=O)c1c(F)c(F)c(F)c(F)c1Nc1cccnc1 [Compound I-52, 2,3,4,5-tetrafluoro-N,N-dimethyl-6-(pyridin-3-ylamino)benzenesulfonamide]	1000 to 10000 nM	> 10000 nM	1000 to 10000 nM		
CN(C)S(=O)(=O)c1c(F)c(F)c(F)c(F)c1NCC(F)F [Compound I-54, 2-((2,2-difluoroethyl)amino)-3,4,5,6-tetrafluoro-N,N-dimethylbenzenesulfonamide]	1000 to 10000 nM	1000 to 10000 nM	> 10000 nM		
COc1ccc(NS(=O)(=O)c2c(F)c(F)c(F)c(F)c2OC(C)C)cc1F [Compound I-61, 2,3,4,5-tetrafluoro-N-(3-fluoro-4-methoxyphenyl)-6-isopropoxybenzenesulfonamide]	100 to 1000 nM	100 to 1000 nM	100 to 1000 nM	A (<10%)	A (>85%)
COc1ccc(NS(=O)(=O)c2c(F)c(F)c(F)c(F)c2OCc2ccccc2)cc1F [Compound I-62, 2-(benzyloxy)-3,4,5,6-tetrafluoro-N-(3-fluoro-4-methoxyphenyl)benzenesulfonamide]	> 10000 nM	> 10000 nM	> 10000 nM	A (<10%)	
COc1ccc(NS(=O)(=O)c2c(F)c(F)c(F)c(F)c2OC)cc1F [Compound I-64, 2,3,4,5-tetrafluoro-N-(3-fluoro-4-methoxyphenyl)-6-methoxybenzenesulfonamide]	≤ 100 nM	100 to 1000 nM	100 to 1000 nM	A (<10%)	A (>85%)
COc1ccc(NS(=O)(=O)c2c(F)c(F)c(F)c(F)c2OCC2CC2)cc1F [Compound I-71, 2-(cyclopropylmethoxy)-3,4,5,6-tetrafluoro-N-(3-fluoro-4-methoxyphenyl)benzenesulfonamide]	1000 to 10000 nM	> 10000 nM	1000 to 10000 nM	A (<10%)	A (>85%)
COc1ccc(NS(=O)(=O)c2c(F)c(F)c(F)c(F)c2C(=O)O)cc1F [Compound I-92, 2,3,4,5-tetrafluoro-6-(N-(3-fluoro-4-methoxyphenyl)sulfamoyl)benzoic acid]	100 to 1000 nM	1000 to 10000 nM	> 10000 nM		
